Reference: paper PMC5218480 (PLoS ONE, 2017)

Test system: MV-4-11 cells
Assay: Gene expression microarray analysis (Affymetrix PrimeView) and GSEA
Type: cell-based, human
Set-up: RFU PODN (11730768_x_at) / Fold change /veh PODN (11730768_x_at) / RFU LINC00158 (11744669_a_at) / Fold change /veh LINC00158 (11744669_a_at) / RFU DUSP10 (11751237_a_at) / Fold change /veh DUSP10 (11751237_a_at) / RFU ID3 (11757404_x_at) / Fold change /veh ID3 (11757404_x_at) / RFU PLEKHG5 (11737974_s_at) / Fold change /veh PLEKHG5 (11737974_s_at) / RFU LRRC4B (11730491_at) / Fold change /veh LRRC4B (11730491_at) / RFU GIMAP4 (11747438_a_at) / Fold change /veh GIMAP4 (11747438_a_at) / RFU KRT8 (11758183_x_at) / Fold change /veh KRT8 (11758183_x_at) / RFU CNN1 (11734310_a_at) / Fold change /veh CNN1 (11734310_a_at) / RFU VPS37D (11726825_at) / Fold change /veh VPS37D (11726825_at) / RFU C10orf10 (11716522_x_at) / Fold change /veh C10orf10 (11716522_x_at) / RFU KIR2DL2 /// KIR2DL4 /// KIR2DL5A /// KIR2DL5B /// KIR2DS1 /// KIR2DS2 /// KIR2DS3 /// KIR2DS4 /// KIR3DL3 /// KIR3DL3 /// KIR3DS1 (11738374_at) / Fold change /veh KIR2DL2 /// KIR2DL4 /// KIR2DL5A /// KIR2DL5B /// KIR2DS1 /// KIR2DS2 /// KIR2DS3 /// KIR2DS4 /// KIR3DL3 /// KIR3DL3 /// KIR3DS1 (11738374_at) / RFU C1QL1 (11718748_at) / Fold change /veh C1QL1 (11718748_at) / RFU TMPRSS4 (11747572_a_at) / Fold change /veh TMPRSS4 (11747572_a_at) / RFU HAMP (11756126_x_at) / Fold change /veh HAMP (11756126_x_at) / RFU RNFT2 (11725882_a_at) / Fold change /veh RNFT2 (11725882_a_at) / RFU NR4A2 (11747474_a_at) / Fold change /veh NR4A2 (11747474_a_at) / RFU ABCC12 (11746883_a_at) / Fold change /veh ABCC12 (11746883_a_at) / RFU TMEM136 (11760407_x_at) / Fold change /veh TMEM136 (11760407_x_at) / RFU CLDN22 /// WWC2 (11732394_at) / Fold change /veh CLDN22 /// WWC2 (11732394_at) / RFU HLA-DPB1 (11760878_x_at) / Fold change /veh HLA-DPB1 (11760878_x_at) / RFU SPINT1 (11716480_a_at) / Fold change /veh SPINT1 (11716480_a_at) / RFU GAP43 (11754022_s_at) / Fold change /veh GAP43 (11754022_s_at) / RFU A4GNT (11735810_at) / Fold change /veh A4GNT (11735810_at) / RFU PRB3 (11715151_x_at) / Fold change /veh PRB3 (11715151_x_at) / RFU TUBB4B (11761932_at) / Fold change /veh TUBB4B (11761932_at) / RFU CAPN14 (11732068_a_at) / Fold change /veh CAPN14 (11732068_a_at) / RFU TMCC2 (11721928_a_at) / Fold change /veh TMCC2 (11721928_a_at) / RFU IRGQ (11745062_a_at) / Fold change /veh IRGQ (11745062_a_at) / RFU FAM174B (11720279_a_at) / Fold change /veh FAM174B (11720279_a_at) / RFU TMPRSS4 (11748680_a_at) / Fold change /veh TMPRSS4 (11748680_a_at) / RFU FAM212B (11763350_a_at) / Fold change /veh FAM212B (11763350_a_at) / RFU PLEKHG5 (11743358_a_at) / Fold change /veh PLEKHG5 (11743358_a_at) / RFU ZSCAN30 (11745921_a_at) / Fold change /veh ZSCAN30 (11745921_a_at) / RFU CMKLR1 (11741424_a_at) / Fold change /veh CMKLR1 (11741424_a_at) / RFU LOC101060620 /// MAPK8IP1 (11723275_at) / Fold change /veh LOC101060620 /// MAPK8IP1 (11723275_at) / RFU SPTSSB (11747773_x_at) / Fold change /veh SPTSSB (11747773_x_at) / RFU PRSS12 (11739890_at) / Fold change /veh PRSS12 (11739890_at) / RFU BIN1 (11741810_x_at) / Fold change /veh BIN1 (11741810_x_at) / RFU WNT11 (11732464_a_at) / Fold change /veh WNT11 (11732464_a_at) / RFU C10orf10 (11716521_a_at) / Fold change /veh C10orf10 (11716521_a_at) / RFU C5orf56 (11738089_at) / Fold change /veh C5orf56 (11738089_at) / RFU CYB561 (11721691_x_at) / Fold change /veh CYB561 (11721691_x_at) / RFU ANKRD19P (11752326_a_at) / Fold change /veh ANKRD19P (11752326_a_at) / RFU OR2T12 /// OR2T33 /// OR2T8 (11738714_s_at) / Fold change /veh OR2T12 /// OR2T33 /// OR2T8 (11738714_s_at) / RFU VCAN (11748164_a_at) / Fold change /veh VCAN (11748164_a_at) / RFU JSRP1 (11732532_at) / Fold change /veh JSRP1 (11732532_at) / RFU KRTAP10-11 (11738290_x_at) / Fold change /veh KRTAP10-11 (11738290_x_at) / RFU MYO3A (11730013_a_at) / Fold change /veh MYO3A (11730013_a_at) / RFU EBF3 (11725865_a_at) / Fold change /veh EBF3 (11725865_a_at) / RFU CAMK2N1 (11719241_x_at) / Fold change /veh CAMK2N1 (11719241_x_at) / RFU C5orf56 (11738088_a_at) / Fold change /veh C5orf56 (11738088_a_at) / RFU OLFML3 (11715873_a_at) / Fold change /veh OLFML3 (11715873_a_at) / RFU LOC100653217 /// NTM (11731650_a_at) / Fold change /veh LOC100653217 /// NTM (11731650_a_at) / RFU MAPK11 (11762145_a_at) / Fold change /veh MAPK11 (11762145_a_at) / RFU FIZ1 (11724087_x_at) / Fold change /veh FIZ1 (11724087_x_at) / RFU OASL (11726364_x_at) / Fold change /veh OASL (11726364_x_at) / RFU SOX15 (11748057_x_at) / Fold change /veh SOX15 (11748057_x_at) / RFU CD79A (11719716_a_at) / Fold change /veh CD79A (11719716_a_at) / RFU HIST1H1D (11736915_at) / Fold change /veh HIST1H1D (11736915_at) / RFU CASKIN2 (11723855_a_at) / Fold change /veh CASKIN2 (11723855_a_at) / RFU LOC730098 (11760151_x_at) / Fold change /veh LOC730098 (11760151_x_at) / RFU OR4N2 (11742367_at) / Fold change /veh OR4N2 (11742367_at) / RFU PRRT2 (11749266_a_at) / Fold change /veh PRRT2 (11749266_a_at) / RFU SNX32 (11753110_a_at) / Fold change /veh SNX32 (11753110_a_at) / RFU CDHR5 (11726645_a_at) / Fold change /veh CDHR5 (11726645_a_at) / RFU RCAN1 (11760418_a_at) / Fold change /veh RCAN1 (11760418_a_at) / RFU FAM167A (11723789_a_at) / Fold change /veh FAM167A (11723789_a_at) / RFU FAM26E (11764081_at) / Fold change /veh FAM26E (11764081_at) / RFU ISYNA1 (11749810_s_at) / Fold change /veh ISYNA1 (11749810_s_at) / RFU ACY1 (11761880_at) / Fold change /veh ACY1 (11761880_at) / RFU 11764098_at / Fold change /veh 11764098_at / RFU SAMD14 (11745864_x_at) / Fold change /veh SAMD14 (11745864_x_at) / RFU NPB (11741838_a_at) / Fold change /veh NPB (11741838_a_at) / RFU TMPRSS6 (11731388_a_at) / Fold change /veh TMPRSS6 (11731388_a_at) / RFU KRTAP10-2 (11738614_at) / Fold change /veh KRTAP10-2 (11738614_at) / RFU ARHGAP8 /// PRR5-ARHGAP8 (11727945_x_at) / Fold change /veh ARHGAP8 /// PRR5-ARHGAP8 (11727945_x_at) / RFU KRTAP5-7 /// NADSYN1 (11734609_at) / Fold change /veh KRTAP5-7 /// NADSYN1 (11734609_at) / RFU RASL12 (11751679_a_at) / Fold change /veh RASL12 (11751679_a_at) / RFU CDKN2B (11736163_a_at) / Fold change /veh CDKN2B (11736163_a_at) / RFU PRF1 (11729649_at) / Fold change /veh PRF1 (11729649_at) / RFU, ZNF638 /// ZNF638-IT1 / Fold change vs veh, ZNF638 /// ZNF638-IT1 / RFU, PANK3 / Fold change vs veh, PANK3 / RFU, SH3YL1 / Fold change vs veh, SH3YL1 / RFU, ZEB2 / Fold change vs veh, ZEB2 / RFU, NRIP1 / Fold change vs veh, NRIP1 / RFU, PTTG1IP / Fold change vs veh, PTTG1IP / RFU, CAPN2 / Fold change vs veh, CAPN2 / RFU, MED14 / Fold change vs veh, MED14 / RFU, SNORA58 / Fold change vs veh, SNORA58 / RFU, C1orf63 / Fold change vs veh, C1orf63 / RFU, LRRFIP1 / Fold change vs veh, LRRFIP1 / RFU, NDUFAF7 / Fold change vs veh, NDUFAF7 / RFU, SLC12A2 / Fold change vs veh, SLC12A2 / RFU, IBTK / Fold change vs veh, IBTK / RFU, ESF1 / Fold change vs veh, ESF1 / Fold change vs veh, TMEM50B / RFU, TAOK1 / Fold change vs veh, TAOK1 / RFU, ACBD3 / Fold change vs veh, ACBD3 / RFU, TMA16 / Fold change vs veh, TMA16 / RFU, RWDD3 / Fold change vs veh, RWDD3 / RFU, BCAT1 / Fold change vs veh, BCAT1 / RFU, EDEM3 / Fold change vs veh, EDEM3 / RFU, TMEM33 / Fold change vs veh, TMEM33 / RFU, WDR75 / Fold change vs veh, WDR75 / RFU, AHCTF1 / Fold change vs veh, AHCTF1 / RFU, TFRC / Fold change vs veh, TFRC / RFU, ZDHHC17 / Fold change vs veh, ZDHHC17 / RFU, NOM1 / Fold change vs veh, NOM1 / RFU, ARL8B / Fold change vs veh, ARL8B / RFU, ZBTB11 / Fold change vs veh, ZBTB11 / RFU, TAMM41 / Fold change vs veh, TAMM41 / RFU, KIAA1704 /// LOC100996395 / Fold change vs veh, KIAA1704 /// LOC100996395 / RFU, ING1 / Fold change vs veh, ING1 / RFU, TRMT61B / Fold change vs veh, TRMT61B / RFU, FUBP3 / Fold change vs veh, FUBP3 / RFU, TP53 / Fold change vs veh, TP53 / RFU, TNKS2 / Fold change vs veh, TNKS2 / RFU, ZFP14 / Fold change vs veh, ZFP14 / RFU, ACTR2 / Fold change vs veh, ACTR2 / RFU, PPP3R1 / Fold change vs veh, PPP3R1 / RFU, PIK3R1 / Fold change vs veh, PIK3R1 / RFU, HNRNPA1 / Fold change vs veh, HNRNPA1 / RFU, RNF170 / Fold change vs veh, RNF170 / RFU, ZNF28 / Fold change vs veh, ZNF28 / RFU, RNGTT / Fold change vs veh, RNGTT / RFU, OGT / Fold change vs veh, OGT / RFU, BRD1 / Fold change vs veh, BRD1 / RFU, MARS / Fold change vs veh, MARS / RFU, ZNF655 / Fold change vs veh, ZNF655 / RFU, FAHD1 / Fold change vs veh, FAHD1 / RFU, BDP1 / Fold change vs veh, BDP1 / RFU, LRRCC1 / Fold change vs veh, LRRCC1 / RFU, ARID1A / Fold change vs veh, ARID1A / RFU, ZNF146 / Fold change vs veh, ZNF146 / RFU, ZNF330 / Fold change vs veh, ZNF330 / RFU, GPN3 / Fold change vs veh, GPN3 / RFU, C9orf123 / Fold change vs veh, C9orf123 / RFU, N4BP2L2 / Fold change vs veh, N4BP2L2 / RFU, ARFIP1 / Fold change vs veh, ARFIP1 / RFU, FAM179B / Fold change vs veh, FAM179B / RFU, BCL10 / Fold change vs veh, BCL10 / RFU, UHRF1BP1L / Fold change vs veh, UHRF1BP1L / RFU, BET1 / Fold change vs veh, BET1 / RFU, CNOT2 / Fold change vs veh, CNOT2 / RFU, ZNF268 / Fold change vs veh, ZNF268 / Fold change vs veh, ZNF507 / RFU, DGCR2 / Fold change vs veh, DGCR2 / RFU, WDSUB1 / Fold change vs veh, WDSUB1 / Fold change vs veh, HSP90B1 /// MIR3652 / RFU, ADSS / Fold change vs veh, ADSS / RFU, GK / Fold change vs veh, GK / RFU, ZNF148 / Fold change vs veh, ZNF148 / RFU, TAF9 / Fold change vs veh, TAF9 / RFU, SLC1A5 / Fold change vs veh, SLC1A5 / RFU, SLMO2 / Fold change vs veh, SLMO2 / RFU, ABCC4 / Fold change vs veh, ABCC4 / RFU, LOC101060439 /// RAP1B / Fold change vs veh, LOC101060439 /// RAP1B / RFU, RFX7 / Fold change vs veh, RFX7 / RFU, GTPBP10 / Fold change vs veh, GTPBP10 / RFU, CNEP1R1 / Fold change vs veh, CNEP1R1 / RFU, BIVM-ERCC5 /// ERCC5 / Fold change vs veh, BIVM-ERCC5 /// ERCC5 / RFU, ILF3 / Fold change vs veh, ILF3 / RFU 11762660_at / Fold change /veh 11762660_at / RFU VCAN (11757783_s_at) / Fold change /veh VCAN (11757783_s_at) / RFU DDX43 (11728927_at) / Fold change /veh DDX43 (11728927_at) / RFU KRT8 (11758188_x_at) / Fold change /veh KRT8 (11758188_x_at) / RFU NKD1 (11759106_at) / Fold change /veh NKD1 (11759106_at) / RFU SRD5A1 (11742802_a_at) / Fold change /veh SRD5A1 (11742802_a_at) / RFU TPSAB1 /// TPSB2 (11721975_s_at) / Fold change /veh TPSAB1 /// TPSB2 (11721975_s_at) / RFU GSTM3 (11746129_a_at) / Fold change /veh GSTM3 (11746129_a_at) / RFU IL23R (11737362_x_at) / Fold change /veh IL23R (11737362_x_at) / RFU TMEM51 (11727254_a_at) / Fold change /veh TMEM51 (11727254_a_at) / RFU PIWIL2 (11732686_x_at) / Fold change /veh PIWIL2 (11732686_x_at) / RFU ORM1 (11744905_x_at) / Fold change /veh ORM1 (11744905_x_at) / RFU CCDC152 (11743942_at) / Fold change /veh CCDC152 (11743942_at) / RFU ECM1 (11717891_a_at) / Fold change /veh ECM1 (11717891_a_at) / RFU IL23R (11748794_a_at) / Fold change /veh IL23R (11748794_a_at) / RFU TNFAIP8L3 (11732012_x_at) / Fold change /veh TNFAIP8L3 (11732012_x_at) / RFU MBOAT4 (11741988_at) / Fold change /veh MBOAT4 (11741988_at) / RFU 11764193_at / Fold change /veh 11764193_at / RFU TMEM53 (11763286_at) / Fold change /veh TMEM53 (11763286_at) / RFU MAGEB2 (11727129_at) / Fold change /veh MAGEB2 (11727129_at) / RFU TMEM200A (11744735_a_at) / Fold change /veh TMEM200A (11744735_a_at) / RFU CCDC152 (11751479_a_at) / Fold change /veh CCDC152 (11751479_a_at) / RFU FAM211A (11726209_a_at) / Fold change /veh FAM211A (11726209_a_at) / RFU RGS16 (11746705_a_at) / Fold change /veh RGS16 (11746705_a_at) / RFU VCAN (11755009_s_at) / Fold change /veh VCAN (11755009_s_at) / RFU RHOB (11743442_s_at) / Fold change /veh RHOB (11743442_s_at) / RFU RGS16 (11720943_a_at) / Fold change /veh RGS16 (11720943_a_at) / RFU RGS16 (11720944_at) / Fold change /veh RGS16 (11720944_at) / RFU, VPS4B / Fold change vs veh, VPS4B / RFU, CREB1 / Fold change vs veh, CREB1 / RFU, DNAJC13 / Fold change vs veh, DNAJC13 / RFU, GNAQ / Fold change vs veh, GNAQ / RFU, CDK5R1 / Fold change vs veh, CDK5R1 / RFU, ZRANB3 / Fold change vs veh, ZRANB3 / RFU, CUL4A / Fold change vs veh, CUL4A / RFU, CCNY / Fold change vs veh, CCNY / RFU, UFL1 / Fold change vs veh, UFL1 / RFU, COG3 / Fold change vs veh, COG3 / RFU, DIAPH2 / Fold change vs veh, DIAPH2 / RFU, SKA2 / Fold change vs veh, SKA2 / RFU, AFF3 / Fold change vs veh, AFF3 / RFU, LMF1 / Fold change vs veh, LMF1 / RFU, IPO11 / Fold change vs veh, IPO11 / RFU, DFFB / Fold change vs veh, DFFB / RFU, FOXP1 / Fold change vs veh, FOXP1 / RFU, CARD8 / Fold change vs veh, CARD8 / RFU, STRN3 / Fold change vs veh, STRN3 / RFU, ADK / Fold change vs veh, ADK / RFU, RASSF2 / Fold change vs veh, RASSF2 / RFU, WIPF1 / Fold change vs veh, WIPF1 / RFU, LARP1B / Fold change vs veh, LARP1B / RFU, RASA1 / Fold change vs veh, RASA1 / RFU, RB1 / Fold change vs veh, RB1 / RFU, PPFIA1 / Fold change vs veh, PPFIA1 / RFU, MAT2A / Fold change vs veh, MAT2A / RFU, CCT5 / Fold change vs veh, CCT5 / RFU, WDR92 / Fold change vs veh, WDR92 / RFU, CUX1 / Fold change vs veh, CUX1 / RFU, TTC7A / Fold change vs veh, TTC7A / RFU, TMEM135 / Fold change vs veh, TMEM135 / RFU, DEPTOR / Fold change vs veh, DEPTOR / RFU, CPM / Fold change vs veh, CPM / RFU, DNAJB6 / Fold change vs veh, DNAJB6 / RFU, CACNA2D3 / Fold change vs veh, CACNA2D3 / RFU, DTX4 / Fold change vs veh, DTX4 / RFU, TFCP2 / Fold change vs veh, TFCP2 / RFU, GMCL1 /// GMCL1P1 / Fold change vs veh, GMCL1 /// GMCL1P1 / RFU, AEBP2 / Fold change vs veh, AEBP2 / RFU, SNHG1 /// SNORD22 /// SNORD25 /// SNORD26 /// SNORD27 /// SNORD28 /// SNORD29 /// SNORD31 / Fold change vs veh, SNHG1 /// SNORD22 /// SNORD25 /// SNORD26 /// SNORD27 /// SNORD28 /// SNORD29 /// SNORD31 / Fold change (Aza/veh), C12orf56 (ProbeSet 11735607_a_at) / Fold change (ACY-1035/veh), C12orf56 (ProbeSet 11735607_a_at) / Fold change (Aza/veh), FGFR1OP (ProbeSet 11751329_s_at) / Fold change (ACY-1035/veh), FGFR1OP (ProbeSet 11751329_s_at) / Fold change (Aza/veh), VPS36 (ProbeSet 11739960_a_at) / Fold change (ACY-1035/veh), VPS36 (ProbeSet 11739960_a_at) / RFU SYPL1 (11715823_x_at) / Fold change /veh SYPL1 (11715823_x_at) / RFU IGFBP7 (11715501_s_at) / Fold change /veh IGFBP7 (11715501_s_at) / RFU REEP3 (11722064_at) / Fold change /veh REEP3 (11722064_at) / RFU IGLL1 (11728026_x_at) / Fold change /veh IGLL1 (11728026_x_at): dose or concentration left out as unconfirmed
Conditions: ProbeSet 11755159_a_at; LIST D

## Nc1ncn([C@@H]2O[C@H](CO)[C@@H](O)[C@H]2O)c(=O)n1 [azacitidine]
  Fold change vs veh, COG3: 0.82
